Test results taken from the supplement of paper PMC4314810.
± gives the standard deviation of the averaged measurements.

Test system: MCF7
Assay: HRG-induced Akt activation (dPAkt = log2 pAkt/Akt HRG-stimulated minus log2 pAkt/Akt basal) (log2 ratio difference); higher = stronger HRG-induced Akt(T308) phosphorylation
Details: miRNA mimic concentration 10 nM; time after transfection 72 h; heregulin 10 ng/ml; stimulation time 1 h
Outline: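 Akt activation induced by heregulin was calculated as the difference between stimulated and unstimulated log ratios of phospho-Akt to total Akt, then averaged across replicates. The ratio was taken as log2(pAkt/Akt) from In-Cell Western readings of phospho-Akt(T308) and total Akt on an Odyssey, corrected for column-wise fixation decay. Before reading, MCF7 cells ([…], 96-well plates) transfected with 879 miRNA mimics at 10 nM final via Lipofectamine RNAiMax were, after 72 h, given 10 ng/ml heregulin-beta1 for 1 h or no stimulus, then fixed with 4% PFA. Two biological replicates were run.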

Row | Sequence | HRG-induced Akt activation (log2)
1 | AGGUUACCCGAGCAACUUUGCAU | 0.732 ± 0.16
2 | AGGUUGACAUACGUUUCCC | 1.43 ± 0.13
3 | AGGUUGGGAUCGGUUGCAAUGCU | 1.59 ± 0.021
4 | AGGUUGUCCGUGGUGAGUUCGCA | 1.02 ± 0.18
5 | AGUAUGUUCUUCCAGGACAGAAC | 1.83 ± 0.087
6 | AGUAUUCUGUACCAGGGAAGGU | 1.96 ± 0.043
7 | AGUCAUUGGAGGGUUUGAGCAG | 1.86 ± 0.057
8 | AGUGAAUGAUGGGUUCUGACC | 1.879 ± 0.002
9 | AGUGCCUGAGGGAGUAAGAGCCC | 1.72 ± 0.04
10 | AGUGGGGAACCCUUCCAUGAGG | 1.94 ± 0.25
11 | AGUGUGGCUUUCUUAGAGC | 0.799 ± 1.1
12 | AGUUAAUGAAUCCUGGAAAGU | 1.46 ± 0.25
13 | AGUUAGGAUUAGGUCGUGGAA | 1 ± 0.39
14 | AGUUCUUCAGUGGCAAGCUUUA | 0.966 ± 0.66
15 | AGUUUUGCAGGUUUGCAUCCAGC | 1.36 ± 0.22
16 | AGUUUUGCAGGUUUGCAUUUCA | 1.13 ± 0.15
17 | AGUUUUGCAUAGUUGCACUACA | 1.37 ± 0.032
18 | AUAAAGCUAGAUAACCGAAAGU | 2.04 ± 0.33
19 | AUAAGACGAACAAAAGGUUUGU | 1.75 ± 0.072
20 | AUAAGACGAGCAAAAAGCUUGU | 1.73 ± 0.05
21 | AUAAUACAUGGUUAACCUCUUU | 1.2 ± 0.064
22 | AUAUAAUACAACCUGCUAAGUG | 0.999 ± 0.15
23 | AUAUAUGAUGACUUAGCUUUU | 2.03 ± 0.027
24 | AUAUUACCAUUAGCUCAUCUUU | 1.42 ± 0.089

Row | Sequence | HRG-induced Akt activation (log2)
25 | AUCAACAGACAUUAAUUGGGCGC | 2.3 ± 0.38
26 | AUCACACAAAGGCAACUUUUGU | 1.78 ± 0.33
27 | AUCACAUUGCCAGGGAUUACC | 1.54 ± 0.03
28 | AUCACAUUGCCAGGGAUUUCC | 1.12 ± 0.24
29 | AUCAUAGAGGAAAAUCCACGU | 2.13 ± 0.46
30 | AUCAUAGAGGAAAAUCCAUGUU | 1.64 ± 1
31 | AUCAUGAUGGGCUCCUCGGUGU | 1.41 ± 0.22
32 | AUCCCACCUCUGCCACCA | 1.2 ± 0.059
33 | AUCCCUUGCAGGGGCUGUUGGGU | 1.02 ± 0.69
34 | AUCCGCGCUCUGACUCUCUGCC | 1.53 ± 0.14
35 | AUCCUUGCUAUCUGGGUGCUA | 1.94 ± 0.15
36 | AUCGCUGCGGUUGCGAGCGCUGU | 1.63 ± 0.063
37 | AUCGGGAAUGUCGUGUCCGCCC | 1.6 ± 0.039
38 | AUCGUGCAUCCCUUUAGAGUGU | 1.54 ± 0.1
39 | AUCGUGCAUCCUUUUAGAGUGU | 1.47 ± 0.099
40 | AUCUGGAGGUAAGAAGCACUUU | 1.83 ± 0.33
41 | AUGACCUAUGAAUUGACAGAC | 1.43 ± 0.063
42 | AUGAUCCAGGAACCUGCCUCU | 2.49 ± 0.056
43 | AUGCACCUGGGCAAGGAUUCUG | 1.77 ± 0.18
44 | AUGCUGACAUAUUUACUAGAGG | 0.706 ± 0.25
45 | AUGGAGAUAGAUAUAGAAAU | 1.51 ± 0.11
46 | AUGGAUAAGGCUUUGGCUU | 1.72 ± 0.027
47 | AUGGGUGAAUUUGUAGAAGGAU | 1.81 ± 0.12
48 | AUGGUACCCUGGCAUACUGAGU | 1.62 ± 0.59

Row | Sequence | HRG-induced Akt activation (log2)
49 | AUGGUUCCGUCAAGCACCAUGG | 1.87 ± 0.22
50 | AUGUAGGGCUAAAAGCCAUGGG | 1.01 ± 0.24
51 | AUGUAUAAAUGUAUACACAC | 1.42 ± 0.5
52 | AUGUAUGUGUGCAUGUGCAUG | 1.62 ± 0.4
53 | AUUCCUAGAAAUUGUUCAUA | 1.18 ± 0.4
54 | AUUCUAAUUUCUCCACGUCUUU | 1.44 ± 0.29
55 | AUUCUGCAUUUUUAGCAAGUUC | 1.8 ± 0.078
56 | AUUGACACUUCUGUGAGUAGA | 1.55 ± 0.046
57 | AUUGAUCAUCGACACUUCGAACGCAAU | 1.383 ± 0.0097
58 | AUUUGUGCUUGGCUCUGUCAC | 0.917 ± 0.31
59 | CAAAAACCACAGUUUCUUUUGC | 0.997 ± 0.23
60 | CAAAAAUCUCAAUUACUUUUGC | 2.04 ± 0.028
61 | CAAAACGUGAGGCGCUGCUAU | 1.27 ± 0.087
62 | CAAAACUGGCAAUUACUUUUGC | 1.5 ± 0.052
63 | CAAAAGUAAUUGUGGAUUUUGU | 1.5 ± 0.065
64 | CAAACCACACUGUGGUGUUAGA | 1.09 ± 0.76
65 | CAAAGAAUUCUCCUUUUGGGCU | 1.74 ± 0.013
66 | CAAAGAGGAAGGUCCCAUUAC | 2.01 ± 0.3
67 | CAAAGCGCUCCCCUUUAGAGGU | 1.02 ± 0.045
68 | CAAAGCGCUUCCCUUUGGAGC | 1.259 ± 0.0069
69 | CAAAGCGCUUCUCUUUAGAGUGU | 0.7 ± 0.83
70 | CAAAGGUAUUUGUGGUUUUUG | 1.74 ± 0.066
71 | CAAAGUGCCUCCCUUUAGAGUG | 0.831 ± 0.84
72 | CAAAGUGCUCAUAGUGCAGGUAG | 1.34 ± 0.39

Row | Sequence | HRG-induced Akt activation (log2)
73 | CAAAGUGCUGUUCGUGCAGGUAG | 1.46 ± 0.35
74 | CAAAGUGCUUACAGUGCAGGUAG | 1.23 ± 0.17
75 | CAAAGUUUAAGAUCCUUGAAGU | 1.08 ± 0.53
76 | CAAAUUCGUAUCUAGGGGAAUA | 1.57 ± 0.036
77 | CAACAAAUCACAGUCUGCCAUA | 1.2 ± 0.27
78 | CAACAAAUCCCAGUCUACCUAA | 1.51 ± 0.076
79 | CAACACCAGUCGAUGGGCUGU | 1.34 ± 0.34
80 | CAACCUGGAGGACUCCAUGCUG | 0.949 ± 0.19
81 | CAACGGAAUCCCAAAAGCAGCUG | 1.51 ± 0.045
82 | CAACUAGACUGUGAGCUUCUAG | 2.04 ± 0.049
83 | CAAGAACCUCAGUUGCUUUUGU | 1.15 ± 0.34
84 | CAAGCUCGCUUCUAUGGGUCUG | 1.18 ± 0.12
85 | CAAGCUCGUGUCUGUGGGUCCG | 0.995 ± 0.35
86 | CAAGCUUGUAUCUAUAGGUAUG | 1.59 ± 0.17
87 | CAAGUCACUAGUGGUUCCGUU | 1.49 ± 0.5
88 | CAAGUCUUAUUUGAGCACCUGUU | 1.94 ± 0.12
89 | CAAUCACUAACUCCACUGCCAU | 1.69 ± 0.37
90 | CAAUCAGCAAGUAUACUGCCCU | 1.93 ± 0.24
91 | CAAUGUUUCCACAGUGCAUCAC | 1.1 ± 0.42
92 | CAAUUUAGUGUGUGUGAUAUUU | 2 ± 0.13
93 | CACAAGGUAUUGGUAUUACCU | 1.79 ± 0.25
94 | CACACACUGCAAUUACUUUUGC | 1.53 ± 0.053
95 | CACAUUACACGGUCGACCUCU | 1.173 ± 0.0052
96 | CACCAGGCAUUGUGGUCUCC | 2.13 ± 0.28

Row | Sequence | HRG-induced Akt activation (log2)
97 | CACCCGGCUGUGUGCACAUGUGC | 1.53 ± 0.48
98 | CACCCGUAGAACCGACCUUGCG | 1.4 ± 0.22
99 | CACGCUCAUGCACACACCCACA | 1.68 ± 0.14
100 | CACUAGAUUGUGAGCUCCUGGA | 1.69 ± 0.57
101 | CACUCAGCCUUGAGGGCACUUUC | 0.664 ± 0.32
102 | CACUGGCUCCUUUCUGGGUAGA | 2.02 ± 0.43
103 | CACUGUAGGUGAUGGUGAGAGUGGGCA | 1.51 ± 0.23
104 | CACUGUGUCCUUUCUGCGUAG | 1.86 ± 0.19
105 | CAGCAGCAAUUCAUGUUUUGAA | 1.53 ± 0.33
106 | CAGCAGCACACUGUGGUUUGU | 1.54 ± 0.46
107 | CAGCCACAACUACCCUGCCACU | 1.94 ± 0.99
108 | CAGGAUGUGGUCAAGUGUUGUU | 1.41 ± 0.093
109 | CAGGCCAUAUUGUGCUGCCUCA | 1.88 ± 0.66
110 | CAGGGAGGUGAAUGUGAU | 1.71 ± 0.099
111 | CAGGUCGUCUUGCAGGGCUUCU | 1.44 ± 0.68
112 | CAGUAACAAAGAUUCAUCCUUGU | 2.1 ± 0.17
113 | CAGUGCAAUAGUAUUGUCAAAGC | 1.02 ± 0.51
114 | CAGUGCAAUGAUAUUGUCAAAGC | 1.07 ± 0.53
115 | CAGUGCAAUGAUGAAAGGGCAU | 1.31 ± 0.024
116 | CAGUGCAAUGUUAAAAGGGCAU | 0.895 ± 0.16
117 | CAGUGCCUCGGCAGUGCAGCCC | 1.45 ± 0.064
